Broadly, the bioavailability is the share of a dose that reaches the circulation, judged against a reference dose that is usually intravenous. Broadly, the EC50 is the concentration giving half of the maximal effect.

The nature of data set [1]: Relative stability of polymorphic / solvate forms. It is filed as physicochemical. The settings on record: water activity ≤0.95 at ambient temperature.
Data set [2] is described as follows: Systemic exposure with increasing dose and repeated oral administration for 28 d in rats. The format is in vivo. The protocol: (§1) Following repeated oral administration of Compound I for 28 d in rats and dogs, accumulation of Compound I exposure was observed. Systemic exposure to Compound I on Day 28 was higher than on Day 1 (Day 28/Day 1 AUC024h ratio ranged from 1.63 to 2.70 in male rats, 5.01 to 8.26 in female rats, 1.73 to 2.64 in male dogs, and 1.82 to 2.23 in female dogs).

The nature of data set [3]: Systemic exposure with increasing dose and repeated oral administration for 28 d in dogs. It is filed as in vivo. The settings on record: as the dose increased. The protocol: as §1
For data set [4], the target named is T1, F508del CFTR (Homo sapiens, UniProt P13569, DEL508-508).
T1 construct: HBE cells derived from 3 F508del homozygous donors and 5 F508del/MF donors; endogenous in cells; host or cells: primary HBE cells from F508del/F508del and F508del/MF donors
T1 sequence (P13569 with tags, fused parts or gaps DEL508-508): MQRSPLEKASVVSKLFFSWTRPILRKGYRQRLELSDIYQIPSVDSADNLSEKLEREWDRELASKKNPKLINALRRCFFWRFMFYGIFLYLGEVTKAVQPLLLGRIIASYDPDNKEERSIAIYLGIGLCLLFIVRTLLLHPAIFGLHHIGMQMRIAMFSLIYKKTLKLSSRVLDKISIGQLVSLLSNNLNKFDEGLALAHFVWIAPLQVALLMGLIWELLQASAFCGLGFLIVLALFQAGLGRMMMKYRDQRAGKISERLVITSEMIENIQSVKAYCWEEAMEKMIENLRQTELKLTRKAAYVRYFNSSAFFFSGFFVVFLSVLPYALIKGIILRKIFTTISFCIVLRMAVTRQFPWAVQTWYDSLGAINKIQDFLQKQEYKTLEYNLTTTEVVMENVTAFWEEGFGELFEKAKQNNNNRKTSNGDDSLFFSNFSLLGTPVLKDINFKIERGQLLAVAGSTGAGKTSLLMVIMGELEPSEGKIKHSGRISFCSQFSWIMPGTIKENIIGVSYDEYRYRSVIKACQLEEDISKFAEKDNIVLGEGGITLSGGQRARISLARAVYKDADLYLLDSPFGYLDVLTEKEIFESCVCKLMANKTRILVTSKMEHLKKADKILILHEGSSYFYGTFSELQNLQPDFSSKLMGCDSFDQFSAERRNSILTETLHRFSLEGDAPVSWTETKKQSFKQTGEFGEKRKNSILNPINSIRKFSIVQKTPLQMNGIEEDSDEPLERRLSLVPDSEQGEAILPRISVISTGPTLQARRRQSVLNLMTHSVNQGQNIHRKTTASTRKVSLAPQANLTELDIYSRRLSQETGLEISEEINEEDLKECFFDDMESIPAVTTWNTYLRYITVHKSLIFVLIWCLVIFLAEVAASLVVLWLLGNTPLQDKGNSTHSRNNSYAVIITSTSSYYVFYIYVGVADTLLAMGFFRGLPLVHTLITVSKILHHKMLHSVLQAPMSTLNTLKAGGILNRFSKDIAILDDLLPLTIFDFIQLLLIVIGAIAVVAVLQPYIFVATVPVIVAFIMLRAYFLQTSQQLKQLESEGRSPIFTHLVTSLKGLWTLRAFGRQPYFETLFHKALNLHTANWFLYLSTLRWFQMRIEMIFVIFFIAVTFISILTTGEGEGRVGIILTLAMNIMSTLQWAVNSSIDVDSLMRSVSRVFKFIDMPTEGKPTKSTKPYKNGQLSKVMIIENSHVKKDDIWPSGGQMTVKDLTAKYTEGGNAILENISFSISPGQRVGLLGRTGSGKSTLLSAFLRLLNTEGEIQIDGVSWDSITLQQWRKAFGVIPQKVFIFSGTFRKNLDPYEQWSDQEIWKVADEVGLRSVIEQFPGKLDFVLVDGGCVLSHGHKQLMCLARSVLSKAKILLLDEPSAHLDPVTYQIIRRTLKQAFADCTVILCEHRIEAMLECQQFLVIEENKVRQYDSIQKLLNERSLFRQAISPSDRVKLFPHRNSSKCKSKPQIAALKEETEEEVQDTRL
The experiment in a line: Ussing chamber chloride transport in F508del/F508del HBE cells. It is filed as cell-based. The settings on record: for chloride transport (effect in words): Compound I alone 16 to 24 h, Compound III added in the presence of Compound I or Compound I/Compound II. Here is the method:
(§2) Ussing chamber studies were conducted to measure F508del CFTR-mediated chloride transport in HBE cells derived from 3 F508del homozygous donors and 5 F508del/MF donors (G542X, 3 donors; E585X, 1 donor; 3905InsT, 1 donor). As a positive control, maximally effective concentrations of N-(benzenesulfonyl)-6-[3-[2-[1-(trifluoromethyl)cyclopropyl]ethoxy]pyrazol-1-yl]-2-[(4S)-2,2,4-trimethylpyrrolidin-1-yl]pyridine-3-carboxamide (see WO 2018/064632) and N-[(6-amino-2-pyridyl)sulfonyl]-6-(3-fluoro-5-isobutoxy-phenyl)-2-[(4S)-2,2,4-trimethylpyrrolidin-1-yl]pyridine-3-carboxamide (see WO 2016/057572) in combination with Compound II/Compound III were included in each experiment.
(§3) In these CF cell lines, CFTR-mediated chloride transport was low in the absence of CFTR modulators, which is consistent with little-to-no CFTR at the cell surface. […] However, the efficacy of Compound I/Compound III and Compound I/Compound II/Compound III was similar at their respective EC90 values.

A short description of data set [5]: Pharmacokinetics after a single oral administration in male monkeys. The format is in vivo. The settings on record: nominal dose 1 mg/kg, oral bioavailability. The protocol:
(§4) Following a single oral administration of Compound I in male animals, Compound I mean tmax values were 9 h in rats, 4 h in dogs, and 3 h in monkeys.

Data set [6] deals with T1, F508del CFTR. The experiment in a line: Ussing chamber chloride transport in F508del/MF HBE cells. The settings on record: for chloride transport (effect in words): Compound I alone 16 to 24 h, Compound III added in the presence of Compound I or Compound I/Compound II. The format is cell-based. Here is the method: as §2, §3
Data set [7] can be described thus: Pharmacokinetics after a single oral administration in male rats. The format is in vivo. The protocol: as §4
A short description of data set [8]: Safety analysis of ongoing clinical study (Cohorts A1 to A5, B, C). It is filed as in vivo, human. Here is the method:
A safety analysis of an ongoing clinical study was performed for 37 subjects in Cohorts A1 to A5, 33 subjects in Cohort B, and 17 subjects in Cohort C, who were exposed to at least 1 dose of study drug (Compound I or placebo) as a monotherapy and as part of a triple combination with Compound II or Compound III.

For data set [9], the target named is CFTR-mediated chloride transport (Homo sapiens, UniProt P13569). The experiment in a line: Membrane potential dye assay in human intestinal epithelial enteroid cells. The format is cell-based. The settings on record: 18-24 h incubation, acute 10 μM forskolin + 300 nM Compound III. Here is the method: Base medium (ADF+++) consisted of Advanced DMEM/Ham's F12, 2 mM Glutamax, 10 mM HEPES, 1μ/ml penicillin/streptomycin.
Chain of CFTR-mediated chloride transport (P13569 whole entry): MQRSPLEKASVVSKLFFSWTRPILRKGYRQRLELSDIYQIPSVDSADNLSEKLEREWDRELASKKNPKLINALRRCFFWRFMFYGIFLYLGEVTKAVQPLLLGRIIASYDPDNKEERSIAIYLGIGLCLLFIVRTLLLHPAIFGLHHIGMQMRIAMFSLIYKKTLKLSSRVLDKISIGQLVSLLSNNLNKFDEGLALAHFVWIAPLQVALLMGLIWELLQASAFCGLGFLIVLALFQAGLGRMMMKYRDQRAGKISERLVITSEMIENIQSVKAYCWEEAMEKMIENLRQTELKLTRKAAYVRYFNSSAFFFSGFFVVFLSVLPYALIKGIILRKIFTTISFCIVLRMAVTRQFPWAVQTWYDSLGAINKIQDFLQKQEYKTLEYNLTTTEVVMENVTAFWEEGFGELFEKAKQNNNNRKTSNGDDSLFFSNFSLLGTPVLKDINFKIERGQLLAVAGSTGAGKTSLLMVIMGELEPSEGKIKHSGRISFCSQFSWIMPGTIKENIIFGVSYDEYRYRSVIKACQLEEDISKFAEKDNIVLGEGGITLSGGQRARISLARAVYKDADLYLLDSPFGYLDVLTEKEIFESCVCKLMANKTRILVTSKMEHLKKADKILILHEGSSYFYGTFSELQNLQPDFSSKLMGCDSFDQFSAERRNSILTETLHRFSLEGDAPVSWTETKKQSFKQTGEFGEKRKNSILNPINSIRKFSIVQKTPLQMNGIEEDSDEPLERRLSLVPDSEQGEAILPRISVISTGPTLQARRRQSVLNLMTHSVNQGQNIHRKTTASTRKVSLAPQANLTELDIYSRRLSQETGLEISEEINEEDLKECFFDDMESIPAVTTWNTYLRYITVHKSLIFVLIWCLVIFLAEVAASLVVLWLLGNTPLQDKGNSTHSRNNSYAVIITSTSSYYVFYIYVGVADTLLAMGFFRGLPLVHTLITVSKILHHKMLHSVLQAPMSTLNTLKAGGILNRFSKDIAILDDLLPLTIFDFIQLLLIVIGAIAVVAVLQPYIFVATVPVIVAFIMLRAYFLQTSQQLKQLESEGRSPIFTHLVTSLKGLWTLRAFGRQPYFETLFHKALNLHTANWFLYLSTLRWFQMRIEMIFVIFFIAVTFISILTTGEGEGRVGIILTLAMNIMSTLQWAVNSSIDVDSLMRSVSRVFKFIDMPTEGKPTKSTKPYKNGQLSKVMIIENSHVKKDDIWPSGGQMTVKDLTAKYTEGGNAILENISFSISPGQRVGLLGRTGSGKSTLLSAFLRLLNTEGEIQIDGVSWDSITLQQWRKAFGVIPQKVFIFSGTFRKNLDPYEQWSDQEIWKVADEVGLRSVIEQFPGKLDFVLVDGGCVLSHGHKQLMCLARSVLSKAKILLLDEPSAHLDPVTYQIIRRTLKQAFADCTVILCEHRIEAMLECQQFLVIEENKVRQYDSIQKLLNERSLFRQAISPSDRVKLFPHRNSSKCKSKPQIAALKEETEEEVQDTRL
Intestinal enteroid maintenance medium (IEMM) consisted of ADF+++, 1×B27 supplement, 1×N2 supplement, 1.25 mM N-acetyl cysteine, 10 mM Nicotinamide, 50 ng/mL hEGF, 10 nM Gastrin, 1 μg/mL hR-spondin-1, 100 ng/mL hNoggin, TGF-b type 1 inhibitor A-83-01, 100 μg/mL Primocin, 10 μM P38 MAPK inhibitor SB202190.
Bath 1 Buffer consisted of 1 mM MgCl2, 160 mM NaCl, 4.5 mM KCl, 10 mM HEPES, 10 mM Glucose, 2 mM CaCl2).
Chloride Free Buffer consisted of 1 mM Magnesium Gluconate, 2 mM Calcium Gluconate, 4.5 mM Potassium Gluconate, 160 mM Sodium Gluconate, 10 mM HEPES, 10 mM Glucose.
Bath1 Dye Solution consisted of Bath 1 Buffer, 0.04% Pluronic F127, 20 μM Methyl Oxonol, 30 μM CaCCinh-A01, 30 μM Chicago Sky Blue. […]
Enteroid cells were incubated with test compound in IEMM for 18-24 h at 37° C., 95% humidity and 5% CO2. […] Chloride transport was initiated by addition of Chloride Free Dye Stimulation Solution and the fluorescence signal was read for 15 min. […] Chloride transport was then expressed as a percentage of the chloride transport following treatment with 3 μM Compound I, 3 μM Compound II, and 300 nM acute Compound III triple combination control (% Activity). […]

Data set [10] in a line: Pharmacokinetics after a single oral administration in male dogs. The format is in vivo. The settings on record: nominal dose 1 mg/kg. The protocol: as §4
Where [11] appears, read: with a fixed combination of Compound II.
Where [12] appears, read: with a fixed concentration of Compound III or Compound II/Compound III.

Regarding `CC1(C)C[C@@H]2CCCNc3cccc(n3)S(=O)(=O)NC(=O)c3ccc(-n4ccc(OCCC5C6(CC6)C56CC6)n4)nc3N1C2` [Compound I free Form A], in data set [1], the relative polymorphic stability entry is given as “most stable polymorphic form”.
For `CC1(C)C[C@@H]2CCCNc3cccc(n3)S(=O)(=O)NC(=O)c3ccc(-n4ccc(OCCC5C6(CC6)C56CC6)n4)nc3N1C2` [Compound I, (14S)-8-[3-(2-{Dispiro[2.0.2.1]heptan-7-yl}ethoxy)-1H-pyrazol-1-yl]-12,12-dimethyl-2λ6-thia-3,9,11,18,23-pentaazatetracyclo[17.3.1.111,14.05,10]tetracosa-1(22),5,7,9,19(23),20-hexaene-2,2,4-trione], the “Dosenormalized exposure, sex difference” value in data set [2] is listed as “higher in female rats than male rats”. The “increase of systemic exposure with dose” value in data set [2] (as the dose increased) and in [3] was “more than doseproportional” throughout. For the same compound, the “chloride transport (effect in words)” value in data set [4] and in [6] was “modest increase in chloride transport” throughout. The synergy analysis result in data set [4] (setting [11]) was “modestly synergistic”; in [4] (setting [12]), “highly synergistic”; in data set [6] (setting [11]), “modestly synergistic”; in data set [6] (setting [12]), “highly synergistic”. Besides, the F in data set [5] was determined as 12.9%; in data set [7] (nominal dose 3 mg/kg, oral bioavailability) it was 76.9%; in [10] (oral bioavailability), 49.7%. For the same compound, in [7] (rat, in vivo, 3 mg/kg, read-out: Mean oral bioavailability (F)), the bioavailability came to 76.9%. Besides, the safety and tolerability result was “generally safe and well-tolerated” in data set [8] (up to 20 mg qd in triple combination with Compound II and Compound III); “generally safe and well-tolerated” in data set [8] (up to a dose of 60 mg qd in monotherapy). In addition, the EC50 in [9] is less than 1000 nM. In addition, the “Max. Activity” value in data set [9] (% of chloride transport with 3 μM Compound I, 3 μM Compound II, 300 nM acute Compound III control) was “+++ (+++ is >60%)”. For the same compound, in data set [10] (mean ± SD (n = 3)), the tmax turned out to be 4.00 ± 0.00 h.
On to `CC(C)(C)c1cc(C(C)(C)C)c(NC(=O)c2c[nH]c3ccccc3c2=O)cc1O` [Compound III, N-[2,4-bis(1,1-dimethylethyl)-5-hydroxyphenyl]-1,4-dihydro-4-oxoquinoline-3-carboxamide, reference compound], for which the “chloride transport (effect in words)” value in [4] and in data set [6] was “strongly potentiated chloride transport” in each case.
